According to patent publication US5543392A, “Digestive tract cell activating agent of EGF and lactoferrin” (Morinaga Milk Industry Co., Ltd., priority 1992, dated 1996):

Tests used:
[1] = system: IEC18 cells; test: Test 1: DNA synthesis acceleration activity of EGF (3H-thymidine incorporation); assay type: cell-based, rat; conditions: for Quantity of incorporated 3H thymidine, average value (n = 4): 18 h, 1% FBS-DMEM
Procedure: This test was carried out to determine an optimum concentration for DNA synthesis acceleration activity of EGF relative to small intestine epithelial cells.
IEC18 cells (purchased from the American Type Culture Collection) which are epithelial crypt-cells of rat small intestine were inoculated into a 24-well culture plate by 10,000 cells per hole and cultured with Dulbecco modified Eagle's medium containing 10% fetal bovine serum (hereinafter abbreviated as "10% FBS-DMEM") until the cells became confluence (1 ml of medium was used per well). Then, the medium was replaced with 1% FBS-DMEM culture was conducted for another three days to introduce the cell cycle into the resting phase. The medium was replaced with of 1% FBS-DMEM (0.5 ml) containing EGF at various concentrations and culture was conducted for 18 hours. Then, the medium was replaced with DME (0.35 ml) containing ^3 H-thymidine (tritium labeling: thymidine 1 micro curie/ml), the cultuure was conducted for another two hours. The result cells were rinsed twice with phosphate-buffered saline [PBS (-), 2 ml], then, ice-cooled 5% trifluoroacetic acid (5% TFA, 2 ml) was added. This was stored in a refrigerator for an hour. The cells were washed twice with 5% TFA (2 ml) and 1N NaOH (0.4 ml) was added. By holding this at 37° C. for an hour, the cells were dissolved. Then, the solution was neutralized by adding 6N HCl (0.08 ml), and therefore, the quantity of ^3 H-thymidine incorporated into DNA was measured by means of a liquid scintillation counter.

[2] = system: IEC18 cells; test: Test 3: proliferation of small intestine epithelial cells (cell count by hemocytometer); assay type: cell-based, rat; conditions: single addition of 10 ng/ml EGF; ten days culture; versus control group with no addition
Procedure: ICE18 cells (the same ones as in the Test 1) were inoculated onto a 24-well culture plate by 5,000 cells per well, and were cultured for ten days with 1% FBS DMEM (0.5 ml) containing the following test subjects. During this test period, the medium was replaced on the third and the sixth days, and the number of cells was measured on the third, the sixth and the tenth days. The number of cells was counted by a hemocytometer after treating the cells with 0.25% trypsin solution and suspending them in the solution.
The test subjects included a sample added with nothing, a sample added with 10 ng/ml EGF, a sample added with 50 μg/ml bLf or bLf-Hy, and a sample added with 10 ng/ml EGF and 50 μg/ml bLf or bLf-Hy.

Substance: EGF: Commercially available mouse submaxillary gland originating EGF (manufactured by Takara Shuzo Company) (NSYPGCPSSYDGYCLNGGVCMHIESLDSYTCNCVIGYSGDRCQTRDLRWWELR; not fully specified; Epidermal growth factor; UniProt P01132 977-1029, looked up)
- Quantity of incorporated 3H thymidine, average value (n = 4) ([1]; EGF concentration 0.08 ng/ml): 17874 cpm
- Quantity of incorporated 3H thymidine, average value (n = 4) ([1]; EGF concentration 0.2 ng/ml (so in the source)): 25398 cpm
- Quantity of incorporated 3H thymidine, average value (n = 4) ([1]; EGF concentration 0.4 ng/ml): 19644 cpm
- Quantity of incorporated 3H thymidine, average value (n = 4) ([1]; EGF concentration 10.0 ng/ml): 26152 cpm
- Quantity of incorporated 3H thymidine, average value (n = 4) ([1]; EGF concentration 50.0 ng/ml): 22665 cpm
- optimum working concentration of EGF for DNA synthesis ([1]; IEC18 cells): 10 ng/mL
- number of cells (FIGS. 3 and 4) [2]: absence of effect
